The record followed here is patent US7928107B2, “Quinazolines useful as modulators of ion channels” (Vertex Pharmaceuticals Incorporated, priority 2004, dated 2011).

Some results are limits rather than exact numbers.

This assay addresses NaV 1.8 channel (Homo sapiens, UniProt Q9Y5Y9). Nature of the assay: Activity against NaV 1.8 channel (optical membrane potential assay). Type of assay: cell-based. An outline of the steps: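 Cells expressing the NaV of interest loaded with CC2-DMPE (30 min, room temperature) then DiSBAC2(3) with ABSCl and veratridine; compound incubated 20–30 min. Depolarization triggered by sodium add-back and read on VIPR as 460/580 nm FRET ratio (Rf/Ri), normalized to tetracaine and untreated controls.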

NaV 1.8 channel, sequence (Q9Y5Y9 whole entry): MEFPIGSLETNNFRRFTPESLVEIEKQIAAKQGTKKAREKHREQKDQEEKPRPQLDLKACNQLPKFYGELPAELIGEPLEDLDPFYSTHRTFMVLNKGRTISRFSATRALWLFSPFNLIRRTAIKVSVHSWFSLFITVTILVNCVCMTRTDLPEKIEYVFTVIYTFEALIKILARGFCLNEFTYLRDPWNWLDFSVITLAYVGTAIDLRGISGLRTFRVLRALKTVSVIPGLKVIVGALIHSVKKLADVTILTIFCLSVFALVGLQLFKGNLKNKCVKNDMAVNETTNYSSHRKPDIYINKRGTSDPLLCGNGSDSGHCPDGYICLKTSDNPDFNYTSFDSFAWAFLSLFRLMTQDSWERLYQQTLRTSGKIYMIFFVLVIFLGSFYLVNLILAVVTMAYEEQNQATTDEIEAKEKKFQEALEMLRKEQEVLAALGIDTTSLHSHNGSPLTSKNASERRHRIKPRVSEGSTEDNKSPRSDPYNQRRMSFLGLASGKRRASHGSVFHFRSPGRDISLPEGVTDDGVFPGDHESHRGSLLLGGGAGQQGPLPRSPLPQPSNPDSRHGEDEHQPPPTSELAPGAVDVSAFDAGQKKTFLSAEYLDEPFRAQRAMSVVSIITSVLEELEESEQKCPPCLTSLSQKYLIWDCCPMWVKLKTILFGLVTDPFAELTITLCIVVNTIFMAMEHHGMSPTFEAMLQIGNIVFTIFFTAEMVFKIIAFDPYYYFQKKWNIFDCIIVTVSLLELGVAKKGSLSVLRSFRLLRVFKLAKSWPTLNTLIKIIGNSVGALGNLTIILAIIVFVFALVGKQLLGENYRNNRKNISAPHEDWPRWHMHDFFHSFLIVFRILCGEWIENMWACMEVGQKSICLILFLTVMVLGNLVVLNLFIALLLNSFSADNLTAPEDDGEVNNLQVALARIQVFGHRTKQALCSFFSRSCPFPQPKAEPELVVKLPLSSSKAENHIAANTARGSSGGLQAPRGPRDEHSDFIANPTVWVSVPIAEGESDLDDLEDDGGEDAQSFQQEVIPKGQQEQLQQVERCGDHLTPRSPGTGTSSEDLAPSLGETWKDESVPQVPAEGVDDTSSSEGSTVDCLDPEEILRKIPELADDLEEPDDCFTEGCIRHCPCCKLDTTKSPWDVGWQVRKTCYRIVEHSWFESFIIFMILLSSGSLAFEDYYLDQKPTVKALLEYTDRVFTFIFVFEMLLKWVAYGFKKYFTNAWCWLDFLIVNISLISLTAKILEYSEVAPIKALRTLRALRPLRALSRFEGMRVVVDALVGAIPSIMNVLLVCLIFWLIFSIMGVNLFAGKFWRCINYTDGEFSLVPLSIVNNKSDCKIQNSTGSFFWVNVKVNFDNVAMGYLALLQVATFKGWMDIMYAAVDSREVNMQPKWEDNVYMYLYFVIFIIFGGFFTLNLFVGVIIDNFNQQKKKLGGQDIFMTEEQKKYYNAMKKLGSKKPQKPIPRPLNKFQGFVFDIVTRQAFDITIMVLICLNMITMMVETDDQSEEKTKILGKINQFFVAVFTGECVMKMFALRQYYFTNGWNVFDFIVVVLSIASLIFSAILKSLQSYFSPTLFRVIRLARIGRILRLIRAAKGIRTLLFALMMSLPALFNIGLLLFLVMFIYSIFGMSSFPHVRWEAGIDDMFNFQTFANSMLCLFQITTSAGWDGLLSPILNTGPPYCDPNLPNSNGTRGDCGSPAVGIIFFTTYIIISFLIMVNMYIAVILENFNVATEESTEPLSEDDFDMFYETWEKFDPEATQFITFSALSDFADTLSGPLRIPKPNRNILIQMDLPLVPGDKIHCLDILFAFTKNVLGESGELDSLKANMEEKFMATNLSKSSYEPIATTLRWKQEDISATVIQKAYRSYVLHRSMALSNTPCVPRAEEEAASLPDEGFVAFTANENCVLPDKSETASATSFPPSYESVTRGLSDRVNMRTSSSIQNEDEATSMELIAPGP

Usually IC50 stands for the point on the concentration scale where inhibition reaches its midpoint. Take `COCCOC(=O)NC[C@@H]1CCN(c2nc(-c3ccccc3O)nc3ccc(F)cc23)C1` [Example 377, 2-Methoxyethyl ((S)-1-(6-fluoro-2-(2-hydroxyphenyl)quinazolin-4-yl)pyrrolidin-3-yl)methylcarbamate]: the concentration for half-maximal inhibition (IC50) is 2 to 10 µM.
In the case of `O=C(OCc1ccncc1)N1CCN(c2nc(-c3ccccc3O)nc3ccccc23)CC1` [Example 116, (Pyridin-4-yl)methyl 4-(2-(2-hydroxyphenyl)quinazolin-4-yl)piperazine-1-carboxylate], the IC50 fell in the range of 2 to 10 µM.
Turning to `Cc1ccc2c(N3CC[C@@H](NC(=O)C4C(C)(C)C4(C)C)C3)nc(-c3ccccc3O)nc2c1` [Example 340, N—((R)-1-(2-(2-Hydroxyphenyl)-7-methylquinazolin-4-yl)pyrrolidin-3-yl)-2,2,3,3-tetramethylcyclopropanecarboxamide], the IC50 is below 2 µM.
For `CC(=O)C[C@@H](O)C(=O)N1CCN(c2nc(-c3ccccc3O)nc3cc(C)ccc23)CC1` [Example 151, (R)-2-Hydroxy-1-(4-(2-(2-hydroxyphenyl)-7-methylquinazolin-4-yl)piperazin-1-yl)pentan-1,4-dione] the value was above 10 µM; for `O=C(N[C@@H]1CCN(c2nc(-c3ccccc3O)nc3ccc(F)cc23)C1)c1cccnc1` [Example 349, N—((R)-1-(6-Fluoro-2-(2-hydroxyphenyl)quinazolin-4-yl)pyrrolidin-3-yl)nicotinamide], above 10 µM; for `Cc1ccc2c(N3CC(CNC(=O)OCC(C)C)C3)nc(-c3ccccc3O)nc2c1` [Example 418], 2 to 10 µM.
Consider `O=C(N[C@@H]1CCN(c2nc(-c3ccccc3O)nc3ccc(F)cc23)C1)C(O)c1ccc(F)cc1` (stereo partly drawn) [Example 358, N—((R)-1-(6-Fluoro-2-(2-hydroxyphenyl)quinazolin-4-yl)pyrrolidin-3-yl)-2-(4-fluorophenyl)-2-hydroxyacetamide], for which the half-inhibitory concentration (IC50) is above 10 µM.
With `Cc1ccc2c(N3CC[C@H](CNC(=O)OCc4ccccc4)C3)nc(-c3ccccc3O)nc2c1` [Example 362, Benzyl ((R)-1-(2-(2-hydroxyphenyl)-7-methylquinazolin-4-yl)pyrrolidin-3-yl)methylcarbamate] the figure was above 10 µM; with `Cc1ccc2c(N3CCC(NC(=O)OCc4ccncc4)CC3)nc(-c3ccccc3O)nc2c1` [Example 228, (Pyridin-4-yl)methyl 1-(2-(2-hydroxyphenyl)-7-methylquinazolin-4-yl)piperidin-4-ylcarbamate], above 10 µM.
Take `Cc1ccc2c(N3CCN(C(=O)OCC4CCCO4)CC3)nc(-c3ccccc3O)nc2c1` (stereo not drawn) [Example 185]: the concentration for half-maximal inhibition (IC50) was 2 to 10 µM.
Regarding `Cc1ccc2c(N3CCN(C(=O)[C@H](O)CC(C)C)CC3)nc(-c3ccccc3O)nc2c1` [Example 168, (R)-2-Hydroxy-1-(4-(2-(2-hydroxyphenyl)-7-methylquinazolin-4-yl)piperazin-1-yl)-4-methylpentan-1-one], the IC50 lay in the range of 2 to 10 µM.
For the compound `O=C(NC[C@@H]1CCN(c2nc(-c3ccccc3O)nc3ccc(F)cc23)C1)O[C@H]1CCOC1` [Example 356, (S)-Tetrahydrofuran-3-yl ((S)-1-(6-fluoro-2-(2-hydroxyphenyl)quinazolin-4-yl)pyrrolidin-3-yl)methylcarbamate], the IC50 was above 10 µM.
On to `CCCC(O)C(=O)NC1CCN(c2nc(-c3ccccc3O)nc3cc(C)ccc23)CC1` (stereo not drawn) [Example 247, 2-Hydroxy-N-(1-(2-(2-hydroxyphenyl)-7-methylquinazolin-4-yl)piperidin-4-yl)pentanamide], for which the 50% inhibitory concentration (IC50) was above 10 µM.
Take `Cc1ccc2c(N3CCN(C(=O)[C@@H](O)CC(C)C)CC3)nc(-c3ccccc3O)nc2c1` [Example 144, (S)-2-Hydroxy-1-(4-(2-(2-hydroxyphenyl)-7-methylquinazolin-4-yl)piperazin-1-yl)-4-methylpentan-1-one]: the 50% inhibitory concentration (IC50) lay within 2 to 10 µM.
With `Cc1ccc2c(N3CCN(C(=O)[C@H](O)CC(C)C)C[C@@H]3C(C)C)nc(-c3ccccc3O)nc2c1` [Example 155, (R)-2-Hydroxy-1-((S)-4-(2-(2-hydroxyphenyl)-7-methylquinazolin-4-yl)-3-isopropylpiperazin-1-yl)-4-methylpentan-1-one] the figure was above 10 µM; with `CCCCC(O)C(=O)N1CCN(c2nc(-c3ccccc3O)nc3cc(C)ccc23)CC1` (stereo not drawn) [Example 120], 2 to 10 µM; with `Cc1ccc2c(N3CC[C@@H](NC(=O)c4ccncc4)C3)nc(-c3c(O)cccc3F)nc2c1` [Example 350, N—((R)-1-(2-(2-Fluoro-6-hydroxyphenyl)-7-methylquinazolin-4-yl)pyrrolidin-3-yl)isonicotinamide], above 10 µM.
As for `Cc1ccc2c(N3CCC(NC(=O)C(C)(O)C(F)(F)F)CC3)nc(-c3ccccc3O)nc2c1` (stereo not drawn) [Example 246, 2-(Trifluoromethyl)-2-hydroxy-N-(1-(2-(2-hydroxyphenyl)-7-methylquinazolin-4-yl)piperidin-4-yl)propanamide], the half-inhibitory concentration (IC50) is above 10 µM.
